Patent publication US12011444B2, “N-substituted indole derivatives as PGE2 receptor modulators” (Idorsia Pharmaceuticals Ltd, priority 2015, dated 2024)

Key:
PTGER2 (EP2) = PTGER2 (EP2) (Homo sapiens (Human), UniProt P43116); experiment: hEP2 b-arrestin assay (PathHunter HEK 293 PTGER2 b-arrestin cells); assay type: cell-based
In short: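 HEK293 cells expressing ProLink-tagged EP2 and EA-fused β-arrestin 2 (enzyme fragment complementation) were seeded 24 h, pre-incubated with compound 15 min at 37 °C, then stimulated with 5 μM PGE2 (final) for 120 min.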

PTRGER4 (EP4) = PTRGER4 (EP4) (Homo sapiens (Human), UniProt P35408); experiment: hEP4 b-arrestin assay (PathHunter HEK 293 PTGER4 b-arrestin cells); assay type: cell-based
In short: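 Stably transfected HEK293 cells carrying EP4–ProLink and β-arrestin 2–EA (β-gal fragment complementation), pre-incubated with compound 15 min at 37 °C, then stimulated with PGE2 (20 nM final) for 120 min at 37 °C. Chemiluminescence read after 1 h detection reagent at room temperature; activity per concentration expressed as percent of DMSO control.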

[1] = hEP2 b-arrestin assay (values without asterisk)
[2] = hEP4 b-arrestin assay (values without asterisk)
[3] = antagonistic activity on hEP2, mean where measured multiple times
[4] = antagonistic activity on hEP4, mean where measured multiple times

PTRGER4 (EP4), sequence (P35408 whole entry, looked up, the tested form may be a part): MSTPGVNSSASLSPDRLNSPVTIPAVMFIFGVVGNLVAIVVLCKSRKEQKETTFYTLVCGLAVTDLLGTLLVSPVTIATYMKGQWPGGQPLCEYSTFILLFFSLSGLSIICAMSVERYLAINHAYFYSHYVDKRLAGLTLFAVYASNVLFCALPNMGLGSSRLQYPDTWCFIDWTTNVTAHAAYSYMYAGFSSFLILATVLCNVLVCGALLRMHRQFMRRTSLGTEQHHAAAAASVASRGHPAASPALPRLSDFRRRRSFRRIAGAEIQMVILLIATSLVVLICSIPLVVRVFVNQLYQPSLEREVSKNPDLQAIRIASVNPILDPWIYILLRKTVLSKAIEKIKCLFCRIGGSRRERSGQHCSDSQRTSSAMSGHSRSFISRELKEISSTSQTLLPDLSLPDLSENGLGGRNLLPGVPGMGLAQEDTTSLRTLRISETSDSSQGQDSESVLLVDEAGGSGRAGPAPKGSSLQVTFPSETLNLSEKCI
PTGER2 (EP2), sequence (P43116 whole entry, the tested form may be a part): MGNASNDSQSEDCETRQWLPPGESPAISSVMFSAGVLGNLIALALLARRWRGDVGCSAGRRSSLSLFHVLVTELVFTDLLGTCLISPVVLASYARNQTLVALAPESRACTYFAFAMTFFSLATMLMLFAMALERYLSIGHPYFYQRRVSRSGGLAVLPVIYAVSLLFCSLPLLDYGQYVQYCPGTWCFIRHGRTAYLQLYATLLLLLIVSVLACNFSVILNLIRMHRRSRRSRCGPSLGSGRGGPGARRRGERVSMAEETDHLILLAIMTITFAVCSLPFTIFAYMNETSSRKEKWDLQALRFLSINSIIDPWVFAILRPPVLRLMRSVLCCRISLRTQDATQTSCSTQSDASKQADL

Compound	IC50 (PTGER2 (EP2); [1]) [nM]	IC50 (PTRGER4 (EP4); [2]) [nM]	IC50 (PTGER2 (EP2); [3]) [nM]	IC50 (PTRGER4 (EP4); [4]) [nM]
CCOc1cc(-c2cc(NCCn3c(C#N)cc4c(OC)ccc(F)c43)ncn2)ccc1C(=O)O [Example 807, 4-{6-[2-(2-Cyano-7-fluoro-4-methoxy-indol-1-yl)-ethylamino]-pyrimidin-4-yl}-2-ethoxy-benzoic acid]	32	55		
Cc1ccc(F)c2c1cc(C)n2CCNc1cc(-c2ccc3c(c2)CN(C)C3=O)ncn1 [compound 95]			59	167
CCOc1cc(-c2cc(NCCn3c(C)cc4c(Cl)ccc(F)c43)ncn2)sc1C(=O)O [compound 240]			2	10
Cc1cc(F)cc2c1cc(C)n2CCNc1cc(-c2ccc3cn[nH]c3c2)ncn1 [compound 7, [2-(6-Fluoro-2,4-dimethyl-indol-1-yl)-ethyl]-[6-(1H-indazol-6-yl)-pyrimidin-4-yl]-amine]			98	556
COc1ccc(F)c2c1cc(C)n2CCNc1cc(-c2ccc(S(N)(=O)=O)c(C)c2)ncn1 [compound 171]			112	231
CCc1cc(-c2cc(NCCn3c(C)cc4c(C)cc(F)cc43)ncn2)cc(Cl)c1C(=O)O [compound 264]			71	287
COc1ccc(F)c2c1cc(C)n2CCNc1cc(-c2ccc3c(c2)CC(=O)N3)ncn1 [compound 91, 5-{6-[2-(7-Fluoro-4-methoxy-2-methyl-indol-1-yl)-ethylamino]-pyrimidin-4-yl}-1,3-dihydro-indol-2-one]			32	144
CCOc1cc(-c2cc(NCCn3c(C#N)cc4c(OC)cccc43)ncn2)ccc1OCC(=O)O [Example 870, (4-{6-[2-(2-Cyano-4-methoxy-indol-1-yl)-ethylamino]-pyrimidin-4-yl}-2-ethoxy-phenoxy)-acetic acid]	8	12		
CCCOc1cc(-c2cc(NCCn3c(C#N)cc4c(OC)ccc(F)c43)ncn2)cc(F)c1C(=O)O [Example 908, 4-{6-[2-(2-Cyano-7-fluoro-4-methoxy-indol-1-yl)-ethylamino]-pyrimidin-4-yl}-2-fluoro-6-propoxy-benzoic acid]	17	33		
COc1ccc(F)c2c1cc(C#N)n2CCNc1cc(-c2ccnc(N)c2)ncn1 [Example 988, 1-{2-[6-(2-Amino-pyridin-4-yl)-pyrimidin-4-ylamino]-ethyl}-7-fluoro-4-methoxy-1H-indole-2-carbonitrile]	51	197		
Cc1cc2ccccc2n1CCNc1cc(-c2ccc(-c3nnc(N)s3)cc2)ncn1 [compound 363]			1	474
CCOc1cc(-c2cc(NCCn3c(C)cc4c(OC)ccc(F)c43)ncn2)sc1NC(N)=O [Example 1075, (3-Ethoxy-5-{6-[2-(7-fluoro-4-methoxy-2-methyl-indol-1-yl)-ethylamino]-pyrimidin-4-yl}-thiophen-2-yl)-urea]	7	49		
COc1ccc(F)c2c1cc(C#N)n2CCNc1cc(-c2ccc3c(c2)CCNC3=O)ncn1 [Example 990, 7-Fluoro-4-methoxy-1-{2-[6-(1-oxo-1,2,3,4-tetrahydro-isoquinolin-6-yl)-pyrimidin-4-ylamino]-ethyl}-1H-indole-2-carbonitrile]	3	19		
Cc1cc(F)cc2c1cc(C)n2CCNc1cc(-c2ccc(-c3cc(O)no3)cc2)ncn1 [compound 200, 5-(4-{6-[2-(6-Fluoro-2,4-dimethyl-indol-1-yl)-ethylamino]-pyrimidin-4-yl}-phenyl)-isoxazol-3-ol]			37	111
COc1cccc2c1cc(C)n2CCNc1cc(-c2ccc(S(N)(=O)=O)c(C)c2)ncn1 [compound 139, 4-{6-[2-(4-Methoxy-2-methyl-indol-1-yl)-ethylamino]-pyrimidin-4-yl}-2-methyl-benzenesulfonamide]			28	939
Cc1cc(-c2cc(NCCn3c(C)cc4c(C)ccc(F)c43)ncn2)ccc1CO [compound 22]			78	369
COc1cc(-c2cc(NCCn3c(C)cc4c(C)ccc(F)c43)ncn2)ccc1CO [compound 30, (4-{6-[2-(7-Fluoro-2,4-dimethyl-indol-1-yl)-ethylamino]-pyrimidin-4-yl}-2-methoxy-phenyl)-methanol]			34	243
COc1nc(-c2cc(NCCn3c(C)cc4c(OC)ccc(F)c43)ncn2)sc1C(=O)O [Example 1033, 2-{6-[2-(7-Fluoro-4-methoxy-2-methyl-indol-1-yl)-ethylamino]-pyrimidin-4-yl}-4-methoxy-thiazole-5-carboxylic acid]	7	37		
CCc1cc(-c2cc(NCCn3c(C)cc4c(OC)ccc(F)c43)ncn2)sc1C(=O)O [compound 230]			5	13
CSc1cc(-c2cc(NCCn3c(C)cc4c(C)c(F)cc(Cl)c43)ncn2)ccc1C(=O)O [compound 270]			46	513
COc1cccc2c1cc(C)n2CCNc1cc(-c2ccc(NC(N)=O)cc2)ncn1 [compound 39, (4-{6-[2-(4-Methoxy-2-methyl-indol-1-yl)-ethylamino]-pyrimidin-4-yl}-phenyl)-urea]			19	515
CCOc1cc(-c2cc(NCCn3c(C#N)cc4c(OC)ccc(F)c43)ncn2)ccc1-c1cnn[nH]1 [Example 930, 1-(2-{6-[3-Ethoxy-4-(3H-[1,2,3]triazol-4-yl)-phenyl]-pyrimidin-4-ylamino}-ethyl)-7-fluoro-4-methoxy-1H-indole-2-carbonitrile]	4	2		
COc1cc(-c2cc(NCCn3c(C#N)cc4c(OC)ccc(F)c43)ncn2)ccc1-c1cc(O)no1 [Example 855, 7-Fluoro-1-(2-{6-[4-(3-hydroxy-isoxazol-5-yl)-3-methoxy-phenyl]-pyrimidin-4-ylamino}-ethyl)-4-methoxy-1H-indole-2-carbonitrile]	6	3		

Results, then the compound that gave them:

IC50 (PTGER2 (EP2); [1]) [nM]	IC50 (PTRGER4 (EP4); [2]) [nM]	IC50 (PTGER2 (EP2); [3]) [nM]	IC50 (PTRGER4 (EP4); [4]) [nM]	Compound
6	9			CCOc1cc(-c2cc(NCCn3c(C)c(F)c4c(OC)ccc(F)c43)ncn2)sc1C(=O)O [Example 1057, 5-{6-[2-(3,7-Difluoro-4-methoxy-2-methyl-indol-1-yl)-ethylamino]-pyrimidin-4-yl}-3-ethoxy-thiophene-2-carboxylic acid]
22	4			Cc1ccc(F)c2c1cc(C#N)n2CCNc1cc(-c2cc(C(F)(F)F)c(C(=O)O)s2)ncn1 [Example 858, 5-{6-[2-(2-Cyano-7-fluoro-4-methyl-indol-1-yl)-ethylamino]-pyrimidin-4-yl}-3-trifluoromethyl-thiophene-2-carboxylic acid]
		88	740	CCN1Cc2cc(-c3cc(NCCn4c(C)cc5c(C)ccc(F)c54)ncn3)ccc2C1=O [compound 206]
		5	658	CCCc1cc(-c2cc(NCCn3c(C)cc4c(F)ccc(Cl)c43)ncn2)ccc1C(=O)O [compound 143, 4-{6-[2-(7-Chloro-4-fluoro-2-methyl-indol-1-yl)-ethylamino]-pyrimidin-4-yl}-2-propyl-benzoic acid]
50	45			CCc1cc(-c2cc(NCCn3c(C#N)cc4c(OC)ccc(F)c43)ncn2)ccc1C(=O)O [Example 948, 4-{6-[2-(2-Cyano-7-fluoro-4-methoxy-indol-1-yl)-ethylamino]-pyrimidin-4-yl}-2-ethyl-benzoic acid]
42	125			COc1cc(-c2cc(NCCn3c(C)cc4c(OC)ccc(F)c43)ncn2)ccc1CC(=O)O [Example 886, (4-{6-[2-(7-Fluoro-4-methoxy-2-methyl-indol-1-yl)-ethylamino]-pyrimidin-4-yl}-2-methoxy-phenyl)-acetic acid]
10	14			COc1ccc(F)c2c1cc(C)n2CCNc1cc(-c2nc(OC(C)C)c(C(=O)O)s2)ncn1 [Example 1032, 2-{6-[2-(7-Fluoro-4-methoxy-2-methyl-indol-1-yl)-ethylamino]-pyrimidin-4-yl}-4-isopropoxy-thiazole-5-carboxylic acid]
		1	25	CCOc1cc(-c2cc(NCCn3c(C)cc4c(F)c(F)cc(F)c43)ncn2)sc1C(=O)O [compound 275]
3	8			COc1cccc2c1cc(C#N)n2CCNc1cc(-c2cc(F)c(C(=O)O)s2)ncn1 [Example 902, 5-{6-[2-(2-Cyano-4-methoxy-indol-1-yl)-ethylamino]-pyrimidin-4-yl}-3-fluoro-thiophene-2-carboxylic acid]
10	4			CCOc1cc(-c2cc(NCCn3c(C#N)cc4c(OC)ccc(F)c43)ncn2)sc1C(=O)OCCN(C)C [Example 1048, 5-{6-[2-(2-Cyano-7-fluoro-4-methoxy-indol-1-yl)-ethylamino]-pyrimidin-4-yl}-3-ethoxy-thiophene-2-carboxylic acid 2-dimethylamino-ethyl ester]
		3	786	CCOc1cc(-c2cc(NCCn3c(C)cc4c(F)ccc(Cl)c43)ncn2)ccc1C(=O)O [compound 152, 4-{6-[2-(7-Chloro-4-fluoro-2-methyl-indol-1-yl)-ethylamino]-pyrimidin-4-yl}-2-ethoxy-benzoic acid]
25	14			COc1ccc(F)c2c1cc(C#N)n2CCNc1cc(-c2ccc3nn[nH]c3c2)ncn1 [Example 985, 1-{2-[6-(3H-Benzotriazol-5-yl)-pyrimidin-4-ylamino]-ethyl}-7-fluoro-4-methoxy-1H-indole-2-carbonitrile]
		41	104	COc1cc(F)cc2c1cc(C)n2CCNc1cc(-c2cc(Cl)c(C(=O)O)c(Cl)c2)ncn1 [compound 291]
